Experimental data reported in patent US7704987B1, “β-amyloid peptide inhibitors” (Prana Biotechnology Ltd, priority 1999, dated 2010).

Legend:
[1] = biological target: T1, Aβ1-28 (Homo sapiens, UniProt P05067); assay: 1H NMR reaction of compound with Aβ1-28; assay type: binding; settings: ~1 equivalent, 24 hrs in DMSO; 600 MHz 1H NMR, pH 6.9, 271 K
T1 construct: adding two equivalents of Cu^2+ to Aβ1-28
Protocol: 1.8 mgs of Aβ1-28 was dissolved in 5 mls DMSO was mixed with 0.33 mgs of compound KJB001 (˜1 equivalent) dissolved in 0.3 mls DMSO. The mixture was allowed to stand for 24 hrs before being freeze-dried. The resulting blue powder was dissolved in 550 μl of an aqueous solution containing 100 mM NaCl, 50 mM phosphate buffer, pH 6.9. A solution of 1.8 mgs Aβ1-28 dissolved in 550 μl of the same solution was used as a control.

[2] = system: Aβ deposited in the brains of Alzheimer's disease patients; assay: Brain tissue assay: solubilisation of Aβ deposits from post-mortem AD brain (Western blot); design: species or system human; settings: post-mortem brain homogenate in PBS, 24 h at room temperature, Western blot (FIG. 7); compound concentrations as in Table 1
Protocol: Post-mortem tissues, stored at −80° C., were obtained from the NH&MRC-supported Brain Bank at the University of Melbourne, together with accompanying histopathological and clinical data. AD was assessed according to CERAD criteria (Mirra et al, 1991).
Compounds were dissolved in DMSO and diluted in a PBS mixture. Insoluble material was removed.
The cortical meninges were removed and gray matter (0.5 g) was homogenised using a DIAX 900 homogeniser (Heidolph & Co, Kelheim, Germany) for 3×30 s periods at full speed, with a 30 s rest between strokes, in 3 ml of ice-cold phosphate-buffered saline (PBS), pH 7.4, containing a mixture of protease inhibitors (BioRad, Hercules, Calif.), but without ethylene diamine tetraacetic acid (EDTA), or in the presence of test compounds or metal ions prepared in PBS. The homogenate samples were incubated for 24 h at room temperature. To obtain the PBS-extractable fraction, the homogenate was centrifuged at 100,000×g for 30 min, the supernatant removed, and divided into 1 ml aliquots. Protein in a 1 ml supernatant sample was precipitated using 1:5 ice-cold 10% trichloracetic acid (TCA), and pelleted by centrifugation at 10,000×g for 20 mins. The pellet was prepared for PAGE by boiling for 10 min in Tris-tricine SDS-sample buffer containing 8% SDS, 10% mercaptoethanol and 8M urea. Total Aβ in the cortical samples was obtained by homogenizing in 1 ml PBS and boiling in sample buffer as described above.
Tris-tricine PAGE was performed by loading samples on to 10-20% gradient gels (Novex, San Diego, Calif.), followed by transfer on to 0.2 mm nitrocellulose membrane (BioRad, Hercules, Calif.). The Aβ was detected using the following monoclonal antibodies: W02, which detects Aβ40 and Aβ42 at an epitope between residues 5 and 8; G210, which is specific for Aβ species which terminate at carboxyl residue 40; or G211, which is specific for Aβ species which terminate at carboxyl residue 42 (Ida et al, 1996), in conjunction with horseradish peroxidase(HRP)-conjugated rabbit anti-mouse IgG (Dako, Denmark), and visualised using chemiluminescence (ECL, Amersham Life Science, UK). Each gel included two or more lanes containing known quantities of synthetic Aβ (Keck Laboratory, Yale University New Haven, Conn.) as reference standards. Blot films were scanned using a Relisys scanner with transparency adapter (Tech Information Systems, Taiwan) and densitometry performed using Image 1.6 software (NIH, Bethesda, Mass.). All samples were analysed at least twice, and gel loadings and dilutions adjusted to fit within the quantifiable region of the standard curve.

[3] = system: cerebral cortical neuron cultures; assay: LDH assay for cell death: inhibition of Aβ1-42 neurotoxicity in vitro; assay type: cell-based; settings: treatment alone; LDH release compared to untreated control cultures; 5 days; KJB030 dialysed, at most 20 μM; Aβ1-42 20 μM
Protocol: Compound KJB030 was dissolved in chelex 100-treated double distilled H2O (CH100-dH2O) at a concentration of 200 μM. Aβ1-42 was dissolved in either 200 μm KJB030 solution or in CH100-dH2O. Both solutions contained 200 μM Aβ1-42. The Aβ1-42 solutions were incubated at ambient temperature (˜20-24° C.) for 3 days. The solutions were then brought to a physiological state by adding 10× phosphate buffered saline (PBS), pH 7.4, thus bringing samples to 1×PBS. Samples were then incubated at 37° C. for 24 hr to induce aggregation of Aβ1-42. Samples were subsequently dialysed in microdialysis cups (3500 Mr cut-off) placed in 5 L PBS for 24 hr, in order to remove some of the excess KJB030 without loss of Aβ1-42.
Dialyzed samples were added to six day old cerebral cortical neuron cultures growing in Neurobasal medium with B27 supplements but without anti-oxidants (Gibco). Samples were diluted into the culture medium to a final concentration of 20 μM Aβ1-42. […]
Determination of cell death was performed using the lactate dehydrogenase (LDH) assay kit (Boehringer Mannheim). […] Culture medium was mixed with the reagents from the LDH kit as per the manufacturer's instructions and the level of LDH measured colourimetrically on a spectrophotometric 96 well plate reader at 490 nm.

T1 sequence (P05067 672-699): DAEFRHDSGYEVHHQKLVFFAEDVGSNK

Compound	reaction with His6, His13, His14 of Aβ1-28 (shift of histidine C2H peaks) [1]	ability to solubilise Aβ deposited in the brains of Alzheimer's disease patients [2]	% cell death [3]
[Co+2].c1ccc2c(c1)-c1nc-2nc2[n-]c(nc3nc(nc4[n-]c(n1)c1ccccc41)-c1ccccc1-3)c1ccccc21 [KJB001, Co(II) phthalocyanine β-form]	had reacted with these residues	particularly strong solubilising activity	–
CC(C)(C)c1cc(C=N[C@H]2CCCC[C@@H]2N=Cc2cc(C(C)(C)C)cc(C(C)(C)C)c2[O-])c([O-])c(C(C)(C)C)c1.[Cl-].[Mn+3] [KJB002, (S,S)-(+)-N-N′-bis(3,5-di-tert-butylsalicylidene)-1-2-cyclohexane diamino manganese(III) chloride]	–	good activity	–
[Mn+2].c1ccc2c(c1)-c1nc3nc(nc4[n-]c(nc5[n-]c(nc-2n1)c1ccccc51)c1ccccc41)-c1ccccc1-3 [KJB006, Manganese(II) phthalocyanine]	–	good activity	–
C1=Cc2nc1c(-c1ccccc1)c1ccc([nH]1)c(-c1ccccc1)c1nc(c(-c3ccccc3)c3ccc([nH]3)c2-c2ccccc2)C=C1.[Cl-].[Cl-].[Cl-].[Mn+3] [KJB007, 5,10,15,20-tetraphenyl-21H,23H-porphine manganese(III) chloride]	–	good activity	–
Aβ1-42: β-amyloid peptide 1-42, the neurotoxic agent in the LDH assay	–	–	22 ± 3.5%
